US4147861A, “1N-(α-Hydroxy-ω-aminoalkanoyl)- 6'N-methyl-3',4'-dideoxykanamycin B and the production thereof” (Zaidan Hojin Biseibutsu Kagaku Kenkyu Kai, priority 1977, dated 1979)
In brackets after ≈: the same amount, converted by molar mass.

What was measured:
[1] = tested on: Staphylococcus aureus FDA 209P; assay: Minimum inhibitory concentration, serial dilution method on nutrient agar; type: cell-based; conditions: FDA209P, 37° C., 18 hours, read-out: Minimum Inhibitory Concentrations
[2] = tested on: Bacillus subtilis PCI 219; assay: as above; type: cell-based; conditions: PCI219, 37° C., 18 hours, read-out: Minimum Inhibitory Concentrations
Staphylococcus aureus = assay: as above; type: cell-based; conditions: 37° C., 18 hours, read-out: Minimum Inhibitory Concentrations
Escherichia coli K-12 = assay: as above; type: cell-based; conditions: K12; Escherichia coli K-12; 37° C., 18 hours; read-out: Minimum Inhibitory Concentrations
[3] = tested on: Salmonella enteritidis 1891; assay: as above; type: cell-based; conditions: Salmonella enterica; Salmonella enteritidis 1891; 37° C., 18 hours; read-out: Minimum Inhibitory Concentrations
Escherichia coli K-12 R5 = assay: as above; type: cell-based; conditions: K12R5, 18 h, read-out: Minimum Inhibitory Concentrations
Salmonella typhosa T-63 = assay: as above; type: cell-based; conditions: Salmonella enterica, 18 h, read-out: Minimum Inhibitory Concentrations
[4] = tested on: Escherichia coli LA290 R64; assay: as above; type: cell-based; conditions: LA290R64, 18 h, read-out: Minimum Inhibitory Concentrations
[5] = tested on: Shigella flexneri 4b JS 11811; assay: as above; type: cell-based; conditions: 4BJS11811, 37° C., 18 hours, read-out: Minimum Inhibitory Concentrations
Procedure: (§1) The minimum inhibitory concentrations (mcg./ml.) of 1N-(DL-isoseryl)-6'N-methyl-3',4'-dideoxykanamycin B (abbreviated as DL-IS-MDKB); 1N-(L-isoseryl)-6'N-methyl-3',4'-dideoxykanamycin B (abbreviated as L-IS-MDKB); 1N-(L-4-amino-[…])-6'N-methyl-3',4'-dideoxykanamycin B (abbreviated as AHB-MDKB); and 1N-(L-5-amino-2-hydroxyvaleryl)-6'N-methyl-3',4'-dideoxykanamycin B (abbreviated as AHV-MDBK) against various organisms were determined according to serial dilution method using nutrient agar medium at 37° C., the readings being made after 18 hours incubation. For the comparison purpose, the minimum inhibitory concentrations (mcg./ml.) of 1 N-(L-4-amino-2-hydroxybutyryl)-kanamycin A (abbreviated as AHB-KMA) and 1N-([…])-kanamycin B (abbreviated as AHB-KMB) which are known from U.S. Pat. No. 3,781,268 were also determined by the same manner as stated above.

Shigella sonnei JS 11746 = assay: as above; type: cell-based; conditions: JS11746, 37° C., 18 hours, read-out: Minimum Inhibitory Concentrations
Procedure: as §1

[6] = tested on: Pseudomonas aeruginosa A3; assay: as above; type: cell-based; conditions: 37° C., 18 hours, read-out: Minimum Inhibitory Concentrations
Procedure: as §1

[7] = tested on: Escherichia coli K-12 ML 1630; assay: as above; type: cell-based; conditions: K12ML1630, 37° C., 18 hours, read-out: Minimum Inhibitory Concentrations
Procedure: as §1

[8] = tested on: Klebsiella pneumoniae 22 No. 3038; assay: as above; type: cell-based; conditions: 37° C., 18 hours, read-out: Minimum Inhibitory Concentrations
Procedure: as §1

[9] = tested on: Pseudomonas aeruginosa TI-13; assay: as above; type: cell-based; conditions: Pseudomonas aeruginosa, TI13, 18 h, read-out: Minimum Inhibitory Concentrations
[10] = tested on: Escherichia coli JR66/W677; assay: as above; type: cell-based; conditions: Escherichia coli, JR66/W677, 18 h, read-out: Minimum Inhibitory Concentrations
[11] = tested on: Pseudomonas aeruginosa No. 12; assay: as above; type: cell-based; conditions: Pseudomonas aeruginosa, NO.12, 18 h, read-out: Minimum Inhibitory Concentrations
Sarcina lutea PCI 1001 = assay: as above; type: cell-based; conditions: Micrococcus luteus, PCI1001, 18 h, read-out: Minimum Inhibitory Concentrations
[12] = tested on: Pseudomonas aeruginosa 99; assay: as above; type: cell-based; conditions: 37° C., 18 hours, read-out: Minimum Inhibitory Concentrations
[13] = tested on: Escherichia coli K-12 ML 1410 R81; assay: as above; type: cell-based; conditions: 18 h, read-out: Minimum Inhibitory Concentrations
[14] = tested on: Bacillus subtilis NRRL B-558; assay: as above; type: cell-based; conditions: NRRLB558, 37° C., 18 hours, read-out: Minimum Inhibitory Concentrations
[15] = tested on: Escherichia coli K-12 ML 1629; assay: as above; type: cell-based; conditions: K12ML1629; Escherichia coli K-12 ML 1629; 37° C., 18 hours; read-out: Minimum Inhibitory Concentrations
[16] = tested on: Staphylococcus aureus Terajima; assay: as above; type: cell-based; conditions: 37° C., 18 hours, read-out: Minimum Inhibitory Concentrations
[17] = tested on: Bacillus cereus ATCC 10702; assay: as above; type: cell-based; conditions: ATCC10702; Bacillus cereus ATCC 10702; 37° C., 18 hours; read-out: Minimum Inhibitory Concentrations
[18] = tested on: Escherichia coli LA290 R55; assay: as above; type: cell-based; conditions: LA290R55, 18 h, read-out: Minimum Inhibitory Concentrations
[19] = tested on: Escherichia coli LA290 R56; assay: as above; type: cell-based; conditions: LA290R56, 18 h, read-out: Minimum Inhibitory Concentrations
[20] = tested on: Klebsiella pneumoniae PCT 602; assay: as above; type: cell-based; conditions: PCT602; Klebsiella pneumoniae PCT 602; 37° C., 18 hours; read-out: Minimum Inhibitory Concentrations
[21] = tested on: kanamycin-resistant bacteria; conditions: prior art statement; cited from earlier work
Bacillus anthracis = assay: microbe, parasite or virus in culture; type: cell-based; conditions: 18 h, read-out: Minimum Inhibitory Concentrations
[22] = tested on: Shigella dysenteriae JS 11910; assay: Minimum inhibitory concentration, serial dilution method on nutrient agar; type: cell-based; conditions: JS11910, 18 h, read-out: Minimum Inhibitory Concentrations
Proteus vulgaris OX 19 = assay: as above; type: cell-based; conditions: OX19; Proteus vulgaris OX 19; 37° C., 18 hours; read-out: Minimum Inhibitory Concentrations
Escherichia coli W677 = assay: as above; type: cell-based; conditions: Escherichia coli W677; 37° C., 18 hours; read-out: Minimum Inhibitory Concentrations
[23] = tested on: Pseudomonas aeruginosa GN315; assay: as above; type: cell-based; conditions: Pseudomonas aeruginosa GN315; 37° C., 18 hours; read-out: Minimum Inhibitory Concentrations
[24] = tested on: Escherichia coli K-12 ML 1410; assay: as above; type: cell-based; conditions: K12ML1410; Escherichia coli K-12 ML 1410; 37° C., 18 hours; read-out: Minimum Inhibitory Concentrations
Escherichia coli NIHJ = assay: as above; type: cell-based; conditions: Escherichia coli NIHJ; 37° C., 18 hours; read-out: Minimum Inhibitory Concentrations
[25] = tested on: Mycobacterium smegmatis ATCC 607; assay: as above; type: cell-based; conditions: Mycolicibacterium smegmatis, ATCC607, 37° C., 18 hours, read-out: Minimum Inhibitory Concentrations
[26] = tested on: Corynebacterium bovis 1810; assay: as above; type: cell-based; conditions: Corynebacterium bovis 1810; 37° C., 18 hours; read-out: Minimum Inhibitory Concentrations

Compound `NCC[C@H](O)C(=O)N[C@@H]1C[C@H](N)[C@@H](O[C@H]2O[C@H](CN)[C@@H](O)[C@H](O)[C@H]2O)[C@H](O)[C@H]1O[C@H]1O[C@H](CO)[C@@H](O)[C@H](N)[C@H]1O` [AHB-KMA, 1 N-(L-4-amino-2-hydroxybutyryl)-kanamycin A, reference compound] has an MIC [1] of 0.39 µg/mL (≈ 0.666 µM), an MIC [2] of under 0.2 µg/mL and an MIC (Staphylococcus aureus) of under 0.2 µg/mL. It also gave an MIC (Escherichia coli K-12) of 0.78 µg/mL (≈ 1.33 µM), an MIC [3] of 0.78 µg/mL (≈ 1.33 µM) and an MIC (Escherichia coli K-12 R5) of 0.39 µg/mL (≈ 0.666 µM). It also gave an MIC (Salmonella typhosa T-63) of 0.39 µg/mL (≈ 0.666 µM), an MIC [4] of 0.39 µg/mL (≈ 0.666 µM) and an MIC [5] of 3.13 µg/mL (≈ 5.34 µM). For the same compound, the MIC (Shigella sonnei JS 11746) was 1.56 µg/mL (≈ 2.66 µM), the MIC [6] was 3.13 µg/mL (≈ 5.34 µM) and the MIC [7] was 0.78 µg/mL (≈ 1.33 µM). It also gave an MIC [8] of 1.56 µg/mL (≈ 2.66 µM), an MIC [9] of 3.13 µg/mL (≈ 5.34 µM) and an MIC [10] of 1.56 µg/mL (≈ 2.66 µM). The MIC [11] was 3.13 µg/mL (≈ 5.34 µM), the MIC (Sarcina lutea PCI 1001) was 3.13 µg/mL (≈ 5.34 µM) and the MIC [12] was 6.25 µg/mL (≈ 10.7 µM). It also gave an MIC [13] of 1.56 µg/mL (≈ 2.66 µM), an MIC [14] of under 0.2 µg/mL and an MIC [15] of 0.78 µg/mL (≈ 1.33 µM). It also gave an MIC [16] of under 0.2 µg/mL, an MIC [17] of 0.78 µg/mL (≈ 1.33 µM) and an MIC [18] of 0.78 µg/mL (≈ 1.33 µM). For the same compound, the MIC [19] was 0.39 µg/mL (≈ 0.666 µM), the MIC [20] was 0.39 µg/mL (≈ 0.666 µM) and the “activity against kanamycin-resistant bacteria” value [21] was “active against a large number of kanamycin-resistant bacteria”. It also gave an MIC (Bacillus anthracis) of under 0.2 µg/mL, an MIC [22] of 3.13 µg/mL (≈ 5.34 µM) and an MIC (Proteus vulgaris OX 19) of 0.78 µg/mL (≈ 1.33 µM). It also gave an MIC (Escherichia coli W677) of under 0.2 µg/mL, an MIC [23] of 100 µg/mL (≈ 171 µM) and an MIC [24] of 0.78 µg/mL (≈ 1.33 µM). The MIC (Escherichia coli NIHJ) was 0.78 µg/mL (≈ 1.33 µM), the MIC [25] was under 0.2 µg/mL and the MIC [26] was 0.78 µg/mL (≈ 1.33 µM).
